Data reported in patent publication US9115101B2 (Genentech, Inc., priority 2012, dated 2015).

molecular target: T1, RORc ligand binding domain (Homo sapiens, UniProt P51449); experiment: In Vitro RORc Ligand Binding Assay (25-[3H]hydroxycholesterol radioligand filtration); conditions: RORc IC50
T1 construct: host or cells: E. coli
T1 sequence (P51449 269-508 limits assumed): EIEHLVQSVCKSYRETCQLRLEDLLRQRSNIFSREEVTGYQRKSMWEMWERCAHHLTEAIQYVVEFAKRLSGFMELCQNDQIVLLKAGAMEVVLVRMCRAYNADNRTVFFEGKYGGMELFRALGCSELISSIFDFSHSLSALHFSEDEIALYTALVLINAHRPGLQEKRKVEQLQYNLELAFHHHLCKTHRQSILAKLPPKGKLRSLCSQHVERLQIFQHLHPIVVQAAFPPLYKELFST

Work on `O=S1(=O)[C@H](c2ccccc2)CCC2(CC2)N1Cc1ccc(N2CCC(n3cnnc3)CC2)cc1F` [Example 421, (S)-4-[2-Fluoro-4-(4-[1,2,4]triazol-4-yl-piperidin-1-yl)-benzyl]-6-phenyl-5-thia-4-aza-spiro[2.5]octane 5,5-dioxide] yielded an IC50 of 289 nM.

same assay, conditions: read-out: RORc IC50

Going from `COC(=O)[C@H]1CN(C(C)=O)CCN1c1ccc(CN2[C@@H](C)CCC(c3ccccc3)S2(=O)=O)c(F)c1` (stereo partly drawn) [Example 416, (R)-4-Acetyl-1-[3-fluoro-4-((3S)-methyl-1,1-dioxo-6-phenyl-[1,2]thiazinan-2-ylmethyl)-phenyl]-piperazine-2-carboxylic acid methyl ester] to `CNC(=O)[C@H]1CN(C(C)=O)CCN1c1ccc(CN2[C@@H](C)CCC(c3ccccc3)S2(=O)=O)c(F)c1` (stereo partly drawn) [Example 435, (R)-4-Acetyl-1-[3-fluoro-4-((3S)-methyl-1,1-dioxo-6-phenyl-[1,2]thiazinan-2-ylmethyl)-phenyl]-piperazine-2-carboxylic acid methylamide], the IC50 falls from 368 nM to 244 nM (1.5-fold). The second is the more potent here.

Compared with `C[C@H]1CCC(c2ccccc2)S(=O)(=O)N1Cc1ccc(N2CCN3C(=O)COCC3C2)cc1F` (stereo partly drawn) [Example 417, 8-[3-Fluoro-4-((3S)-methyl-1,1-dioxo-6-phenyl-[1,2]thiazinan-2-ylmethyl)-phenyl]-hexahydro-pyrazino[2,1-c][1,4]oxazin-4-one], `C[C@H]1CCC(c2ccccc2)S(=O)(=O)N1Cc1ccc(N2CCN3C(=O)CC[C@H]3C2)cc1F` (stereo partly drawn) [Example 419, (S)-2-[3-Fluoro-4-((3S)-methyl-1,1-dioxo-6-phenyl-[1,2]thiazinan-2-ylmethyl)-phenyl]-hexahydro-pyrrolo[1,2-a]pyrazin-6-one] is 7.2-fold lower in IC50: 231 nM for the first, 32 nM for the second.

Compared with `C[C@H]1CCC(c2ccccc2)S(=O)(=O)N1Cc1ccc(N2CCC(n3cnnn3)CC2)cc1` (stereo partly drawn) [Example 422, (3S)-Methyl-6-phenyl-2-[4-(4-tetrazol-1-yl-piperidin-1-yl)-benzyl]-[1,2]thiazinane 1,1-dioxide], `C[C@H]1CCC(c2ccccc2)S(=O)(=O)N1Cc1ccc(N2CCC(n3ncnn3)CC2)cc1` (stereo partly drawn) [Example 423, (3S)-Methyl-6-phenyl-2-[4-(4-tetrazol-2-yl-piperidin-1-yl)-benzyl]-[1,2]thiazinane 1,1-dioxide] is 2.5-fold higher in IC50: 70 nM for the first, 177 nM for the second. The first is the more potent here.

Going from `C[C@H]1CCC(c2ccccc2)S(=O)(=O)N1Cc1ccc(N2CC3(CC(n4cnnc4)C3)C2)cc1F` (stereo partly drawn) [Example 424, 2-[3-Fluoro-4-((3S)-methyl-1,1-dioxo-6-phenyl-[1,2]thiazinan-2-ylmethyl)-phenyl]-6-[1,2,4]triazol-4-yl-2-aza-spiro[3.3]heptane] to `C[C@H]1CCC(c2ccccc2)S(=O)(=O)N1Cc1ccc(N2CC(n3cnnc3)C2)cc1F` (stereo partly drawn) [Example 428, 2-[2-Fluoro-4-(3-[1,2,4]triazol-4-yl-azetidin-1-yl)-benzyl]-(3S)-methyl-6-phenyl-[1,2]thiazinane 1,1-dioxide], the IC50 falls from 427 nM to 88 nM (4.9-fold).

First: C[C@H]1CCC(c2ccccc2)S(=O)(=O)N1Cc1ccc(N2CC3(CC(n4cnnc4)C3)C2)cc1F (stereo partly drawn) [Example 425, 2-[3-Fluoro-4-((3S)-methyl-1,1-dioxo-6-phenyl-[1,2]thiazinan-2-ylmethyl)-phenyl]-6-[1,2,4]triazol-4-yl-2-aza-spiro[3.3]heptane]
Second: C[C@H]1CCC(c2ccccc2)S(=O)(=O)N1Cc1ccc(N2C[C@@H]3[C@H](C2)[C@H]3n2cnnc2)cc1F (stereo partly drawn) [Example 440, (1R,5S,6S)-3-[3-Fluoro-4-((3S)-methyl-1,1-dioxo-6-phenyl-[1,2]thiazinan-2-ylmethyl)-phenyl]-6-[1,2,4]triazol-4-yl-3-aza-bicyclo[3.1.0]hexane]
The IC50 of the first is 84-fold higher: 1010 nM for the first, 12 nM for the second.

Compared with `COC(=O)C1(n2cnnc2)CCN(c2ccc(CN3[C@@H](C)CCC(c4ccccc4)S3(=O)=O)c(F)c2)CC1` (stereo partly drawn) [Example 426, 1-[3-Fluoro-4-((3S)-methyl-1,1-dioxo-6-phenyl-[1,2]thiazinan-2-ylmethyl)-phenyl]-4-[1,2,4]triazol-4-yl-piperidine-4-carboxylic acid methyl ester], `C[C@H]1CCC(c2ccccc2)S(=O)(=O)N1Cc1ccc(N2CCN(c3cnccn3)CC2)cc1F` (stereo partly drawn) [Example 441, 4-[3-Fluoro-4-((3S)-methyl-1,1-dioxo-6-phenyl-[1,2]thiazinan-2-ylmethyl)-phenyl]-3,4,5,6-tetrahydro-2H-[1,2′]bipyrazinyl] is 2.6-fold lower in IC50: 453 nM for the first, 171 nM for the second.

Compared with `COC(=O)C1(n2cnnc2)CCN(c2ccc(CN3[C@@H](C)CCC(c4ccccc4)S3(=O)=O)c(F)c2)CC1` (stereo partly drawn) [Example 427, 1-[3-Fluoro-4-((3S)-methyl-1,1-dioxo-6-phenyl-[1,2]thiazinan-2-ylmethyl)-phenyl]-4-[1,2,4]triazol-4-yl-piperidine-4-carboxylic acid methyl ester], `C[C@H]1CCC(c2ccccc2)S(=O)(=O)N1Cc1ccc(N2CCN(c3ncncn3)CC2)cc1F` (stereo partly drawn) [Example 442, 2-{4-[3-Fluoro-4-((3S)-methyl-1,1-dioxo-6-phenyl-[1,2]thiazinan-2-ylmethyl)-phenyl]-piperazin-1-yl}-[1,3,5]triazine] is 12-fold lower in IC50: 447 nM for the first, 37 nM for the second.

Compared with `C[C@H]1CCC(c2ccccc2)S(=O)(=O)N1Cc1ccc(OCC2CCOC2)cc1` (stereo partly drawn) [Example 430, (3S)-Methyl-6-phenyl-2-[4-(tetrahydro-furan-3-ylmethoxy)-benzyl]-[1,2]thiazinane 1,1-dioxide], `C[C@H]1CCC(c2ccccc2)S(=O)(=O)N1Cc1ccc(OCC2CCOCC2)cc1` (stereo partly drawn) [Example 436, (3S)-Methyl-6-phenyl-2-[4-(tetrahydro-pyran-4-ylmethoxy)-benzyl]-[1,2]thiazinane 1,1-dioxide] is 6.5-fold lower in IC50: 559 nM for the first, 86 nM for the second.

`C[C@H]1CCC(c2ccccc2)S(=O)(=O)N1Cc1ccc(OCC2CC2)cc1` (stereo partly drawn) [Example 431, 2-(4-Cyclopropylmethoxy-benzyl)-(3S)-methyl-6-phenyl-[1,2]thiazinane 1,1-dioxide] and `C[C@H]1CCC(c2ccccc2)S(=O)(=O)N1Cc1ccc(OCC2(C)COC2)cc1` (stereo partly drawn) [Example 448, (3S)-Methyl-2-[4-(3-methyl-oxetan-3-ylmethoxy)-benzyl]-6-phenyl-[1,2]thiazinane 1,1-dioxide] are within 1.5-fold of each other in IC50: 641 nM for the first, 656 nM for the second.

Going from `C[C@H]1CCC(c2ccccc2)S(=O)(=O)N1Cc1ccc(OC2CCOCC2)cc1` (stereo partly drawn) [Example 432, (3S)-Methyl-6-phenyl-2-[4-(tetrahydro-pyran-4-yloxy)-benzyl]-[1,2]thiazinane 1,1-dioxide] to `C[C@H]1CCC(c2ccccc2)S(=O)(=O)N1Cc1ccc(OC2CCOC2)cc1` (stereo partly drawn) [Example 447, (3S)-Methyl-6-phenyl-2-[4-(tetrahydro-furan-3-yloxy)-benzyl]-[1,2]thiazinane 1,1-dioxide], the IC50 falls from 1110 nM to 268 nM (4.1-fold). The second is the more potent here.

First: CC(=O)N1CCN(c2ccc(CN3[C@@H](C)CCC(c4ccccc4)S3(=O)=O)c(F)c2)[C@@H](C(N)=O)C1 (stereo partly drawn) [Example 433, (R)-4-Acetyl-1-[3-fluoro-4-((3S)-methyl-1,1-dioxo-6-phenyl-[1,2]thiazinan-2-ylmethyl)-phenyl]-piperazine-2-carboxylic acid amide]
Second: CC(=O)N1CCN(c2ccc(CN3[C@@H](C)CCC(c4ccccc4)S3(=O)=O)c(F)c2)[C@@H](C(=O)O)C1 (stereo partly drawn) [Example 434, (R)-4-Acetyl-1-[3-fluoro-4-((3S)-methyl-1,1-dioxo-6-phenyl-[1,2]thiazinan-2-ylmethyl)-phenyl]-piperazine-2-carboxylic acid]
The IC50 of the first is 5-fold lower: 228 nM for the first, 1130 nM for the second.

Compared with `CC(Oc1ccc(CN2[C@@H](C)CCC(c3ccccc3)S2(=O)=O)cc1)C1CCOCC1` (stereo partly drawn) [Example 437, (3S)-Methyl-6-phenyl-2-{4-[1-(tetrahydro-pyran-4-yl)-ethoxy]-benzyl}-[1,2]thiazinane 1,1-dioxide], `C[C@H]1CCC(c2ccccc2)S(=O)(=O)N1Cc1ccc(OCCN2CCOCC2)cc1` (stereo partly drawn) [Example 438, 4-{2-[4-((3S)-Methyl-1,1-dioxo-6-phenyl-[1,2]thiazinan-2-ylmethyl)-phenoxy]-ethyl}-morpholine] is 14-fold higher in IC50: 48 nM for the first, 665 nM for the second. The first is the more potent here.

Compared with `C[C@H]1CCC(c2ccccc2)S(=O)(=O)N1Cc1ccc(OCCN2CCCC2=O)cc1` (stereo partly drawn) [Example 439, 1-{2-[4-((3S)-Methyl-1,1-dioxo-6-phenyl-[1,2]thiazinan-2-ylmethyl)-phenoxy]-ethyl}-pyrrolidin-2-one], `C[C@H]1CCC(c2ccccc2)S(=O)(=O)N1Cc1ccc(OC2CCNC2=O)cc1` (stereo partly drawn) [Example 446, 3-[4-((3S)-Methyl-1,1-dioxo-6-phenyl-[1,2]thiazinan-2-ylmethyl)-phenoxy]-pyrrolidin-2-one] is 4.6-fold higher in IC50: 325 nM for the first, 1500 nM for the second.

First: C[C@H]1CCC(c2ccccc2)S(=O)(=O)N1Cc1ccc(NCC2CCOCC2)cc1F (stereo partly drawn) [Example 445, [3-Fluoro-4-((3S)-methyl-1,1-dioxo-6-phenyl-[1,2]thiazinan-2-ylmethyl)-phenyl]-(tetrahydro-pyran-4-ylmethyl)-amine]
Second: C[C@H]1CCC(c2ccccc2)S(=O)(=O)N1Cc1ccc(NC(=O)CC2CCOCC2)cc1F (stereo partly drawn) [Example 455, N-[3-Fluoro-4-((3S)-methyl-1,1-dioxo-6-phenyl-[1,2]thiazinan-2-ylmethyl)-phenyl]-2-(tetrahydro-pyran-4-yl)-acetamide]
The IC50 of the first is 4.9-fold lower: 25 nM for the first, 123 nM for the second. The first is the more potent here.

Compared with `C[C@H]1CCC(c2ccccc2)S(=O)(=O)N1Cc1ccc(OC2CCC(=O)NC2)cc1` (stereo partly drawn) [Example 449, 5-[4-((3S)-Methyl-1,1-dioxo-6-phenyl-[1,2]thiazinan-2-ylmethyl)-phenoxy]-piperidin-2-one], `CC1CN(S(C)(=O)=O)CCC1Nc1ccc(CN2[C@@H](C)CCC(c3ccccc3)S2(=O)=O)c(F)c1` (stereo partly drawn) [Example 451, [3-Fluoro-4-((3S)-methyl-1,1-dioxo-6-phenyl-[1,2]thiazinan-2-ylmethyl)-phenyl]-(1-methanesulfonyl-3-methyl-piperidin-4-yl)-amine] is 71-fold lower in IC50: 852 nM for the first, 12 nM for the second.

For `CC1CN(S(C)(=O)=O)CCC1Nc1ccc(CN2[C@@H](C)CCC(c3ccccc3)S2(=O)=O)c(F)c1` (stereo partly drawn) [Example 453, [3-Fluoro-4-((3S)-methyl-1,1-dioxo-6-phenyl-[1,2]thiazinan-2-ylmethyl)-phenyl]-(1-methanesulfonyl-3-methyl-piperidin-4-yl)-amine], the IC50 was 9 nM.
